Source: PMC4562501 (Anesthesiology, 2014)
Read-outs that look alike come from different tables or passages of the source.

Columns and labels:
[1] = oral methadone; for Plasma Cmax/dose: control session, n=16, mean ± SD
clinical = details: both, human, in vivo, po, oral methadone; for Tmax: Plasma Tmax; for half-life: Plasma t½
[2] = Intravenous methadone pharmacokinetics, protocol 2; format: in vivo; details: both, human, plasma
healthy volunteers [3] = test: Miosis; format: in vivo, human
healthy volunteers [4] = test: Miosis; format: in vivo, human; details: IV methadone
healthy volunteers [5] = test: Thermal analgesia; format: in vivo, human; details: IV methadone
[6] = racemic methadone; cited from earlier work
P-gp [7] = details: Caco-2 cells; cited from earlier work
healthy volunteers [8] = test: Thermal analgesia; details: oral methadone
P-gp [9] = details: well-known P-gp substrate, for comparison; cited from earlier work
P-gp [10] = details: tariquidar 6 mg/kg, humans; cited from earlier work

SMILES: CC=C1N(C)C(C)CC1(c1ccccc1)c1ccccc1 (stereo not shown) [R-EDDP, 2-ethylidene-1,5-dimethyl-3,3-diphenylpyrrolidine]
- Plasma AUC0-96/dose ([1]; control): 6.7 ± 1.6 ng·h/mL/mg
- Urine %dose eliminated (0-24 h) ([1]; control): 4.2 ± 2.3 %dose
- Urine %dose eliminated (0-96 h) ([1]; control): 9 ± 4 %dose
- Plasma Cmax/dose [1]: 0.24 ± 0.09 ng/mL/mg
- Plasma AUC0-96/dose ([1]; cyclosporine-treated): 8.2 ± 1.9 ng·h/mL/mg
- Urine %dose eliminated (0-24 h) ([1]; cyclosporine-treated): 4.2 ± 1.8 %dose
- Urine %dose eliminated (0-96 h) ([1]; cyclosporine-treated): 10 ± 4 %dose
- Tmax (clinical; control): 2.5 ± 0.5 h
- Tmax (clinical; cyclosporine-treated): 4.1 ± 1.1 h
- half-life (clinical; control): 2.38 ± 0.917 days
- half-life (clinical; cyclosporine-treated): 3.04 ± 1.58 days

SMILES: CCC(=O)C(C[C@H](C)N(C)C)(c1ccccc1)c1ccccc1 [S-Methadone, S-methadone]
- AUC(0-t) [2]: 282 ± 68 ng·h/mL
- AUC(0-t) ([2]; 0.1 mg/kg): 276 ± 47 ng·h/mL
- Cmax ([2]; 0.1 mg/kg): 32.2 ± 7.9 ng/mL
- Tmax (clinical; control): 2 ± 0.5 h
- Tmax (clinical; cyclosporine-treated): 4.6 ± 2.3 h

SMILES: CC=C1N(C)C(C)CC1(c1ccccc1)c1ccccc1 (stereo not shown) [S-EDDP, 2-ethylidene-1,5-dimethyl-3,3-diphenylpyrrolidine]
- Plasma AUC0-96/dose ([1]; control): 11.6 ± 3.2 ng·h/mL/mg
- Plasma Tmax ([1]; control): 2.3 ± 0.7 h
- Plasma t½ ([1]; control): 87 ± 25 h
- Urine %dose eliminated (0-24 h) ([1]; control): 7.2 ± 3.8 %dose
- Urine %dose eliminated (0-96 h) ([1]; control): 15 ± 6 %dose
- Plasma Cmax/dose [1]: 0.35 ± 0.17 ng/mL/mg
- Plasma AUC0-96/dose ([1]; cyclosporine-treated): 14.4 ± 3.5 ng·h/mL/mg
- Plasma t½ ([1]; cyclosporine-treated): 102 ± 39 h
- Urine %dose eliminated (0-24 h) ([1]; cyclosporine-treated): 7.4 ± 3.7 %dose
- Urine %dose eliminated (0-96 h) ([1]; cyclosporine-treated): 16 ± 8 %dose
- Plasma AUC0-96 (EDDP/methadone) ratio (cyclosporine/control) ([1]; geometric mean and 90% confidence interval): 1.15 (1.04, 1.27)

SMILES: CC=C1N(C)C(C)CC1(c1ccccc1)c1ccccc1 (stereo not shown) [EDDP, 2-ethylidene-1,5-dimethyl-3,3-diphenylpyrrolidine]
- Increase of EDDP/methadone AUC ratio by cyclosporine [1]: 11-15%

SMILES: CCC(=O)C(CC(C)N(C)C)(c1ccccc1)c1ccccc1 (stereo not shown) [methadone]
- Miotic response (average) (healthy volunteers [3]; oral methadone): 2 mm
- Peak miosis (dose-adjusted) (healthy volunteers [3]; oral methadone, controls): 1.4 ± 0.4 mm/mg
- Peak miosis (dose-adjusted) (healthy volunteers [3]; oral methadone, cyclosporine-treated subjects): 1.3 ± 0.5 mm/mg
- Miotic response (average) (healthy volunteers [4]): 2.5 mm
- Peak miosis (healthy volunteers [4]; controls): 3.1 ± 1.0 mm
- Peak miosis (healthy volunteers [4]; cyclosporine-treated subjects): 3.2 ± 0.8 mm
- Analgesic effect (thermal) (healthy volunteers [5]): minimal analgesic effects
- Median minimal effective (postoperative) analgesia threshold [6]: 31 ng/mL
- Reduction of rhodamine transport (P-gp [7]): 25%
- Maximally tolerated temperature (method of limits) (healthy volunteers [8]): increased the maximally tolerated temperature
- Verbal analog ratings to discrete temperatures (healthy volunteers [8]): small and brief analgesic effect

SMILES: CN(C)C(=O)C(CCN1CCC(O)(c2ccc(Cl)cc2)CC1)(c1ccccc1)c1ccccc1 [loperamide]
- Transport ratio (P-gp [9]): exceeds 10

SMILES: COc1cc2c(cc1OC)CN(CCc1ccc(NC(=O)c3cc(OC)c(OC)cc3NC(=O)c3cnc4ccccc4c3)cc1)CC2 [tariquidar]
- Increase in brain concentrations of (R)-[11C]verapamil (P-gp [10]): 2.5 fold
- Increase in brain concentrations of [11C]N-desmethyl-loperamide (P-gp [10]): 4 fold

SMILES: CCC(=O)C(C[C@@H](C)N(C)C)(c1ccccc1)c1ccccc1 [R-Methadone, R-methadone]
- Plasma concentration at which miosis was detectable (average) (healthy volunteers [3]; plasma R-methadone): 5 ng/mL
